The source of these data is patent US20090035292A1, “Use of phosphatases to treat neuroblastomas and medulloblastomas” (priority 2007, published 2009).

SMILES strings stand for the structures. Entries after “also recorded” stand apart in the source; their conditions may differ. Where two headings read alike, the source gives them in different places.

One test has as its system neuroblastoma. To be noted: given for 6 months to high risk patients after chemotherapeutic, surgical and radiation treatments (Matthay et al., 1999); cited from earlier work.
Test [1] has as its system neuroblastoma cell line, SH-SY5Y. Nature of the test: Proliferation of neuroblastoma cell line SH-SY5Y in vitro. The test is classed as cell-based, human. The procedure: FIG. 1. […] The neuroblastoma cell line, SH-SY5Y, was exposed to Compound 100 for 4 or 7 days at concentrations of 1 μM (squares), 5 μM (triangles), 10 μM (short dashed line), 20 μM (diamonds), 50 μM (long dashed line) or vehicle only (circles).
FIG. 2. […] The neuroblastoma cell line, SH-SY5Y, was exposed to 5 μM Compound 100 (squares), 25 μM ATRA (circles), the combination of 5 μM Compound 100 and 25 μM ATRA (dashed line) or vehicle only (black line) for 4 or 7 days. […]
The human neuroblastoma cell line SH-SY5Y is available from the European Collection of Cell Cultures, Health Protection Agency, Porton Down SP40JG Salisbury, Wiltshire UK, as ECACC No. 94030304.
The neuroblastoma cell line, SHSY5Y, was exposed to the cantharidin analog Compound 100 for 4 or 7 days at concentrations of 1, 5, 10, 20 and 50 μM.
Subsequently, SH-SY5Y cells were exposed to Compound 100 at a concentration of 5 μM, ATRA at 25 μM or the combination of the two drugs at the aforementioned doses for 4 or 7 days. […]

Test [2] concerns medulloblastoma cell line, DAOY. Nature of the test: Proliferation of medulloblastoma cell line DAOY in vitro. The test is classed as cell-based, human. The procedure:
FIG. 4. […] The medulloblastoma cell line, DAOY, was exposed to 20 μM Compound 100 (squares), 5 μM Compound 100 (triangles), 1 μM Compound 100 (x's) or vehicle only (diamonds) for 3 days.
FIG. 5. […] The medulloblastoma cell line, DAOY, was exposed to 50 μM ATRA (squares), 20 μM ATRA (triangles), 5 μM ATRA (X's) or vehicle only (diamonds) for 3 days.
FIG. 6. […] The medulloblastoma cell line, DAOY, was exposed to 2 mM valproic acid (squares), 1 mM valproic acid (triangles), 0.5 mM valproic acid (X's) or vehicle only (diamonds) for 3 days.
The human medulloblastoma cell line DAOY is available from the American Type Culture Collection (ATCC), P.O. Box 1549, Manassas, Va., 20108, as ATCC No. HTB-186.
The medulloblastoma cell line, DAOY, was exposed to the cantharidin analog, Compound 100 at concentrations of 1 μM, 5 μM and 20 μM and evaluated for cellular proliferation over the course of three days. […] Therefore, Compound 100 even at low concentration is capable of preventing cellular proliferation.
To confirm these observations, cultured DAOY cells were treated with 50 μM, 20 μM, 5 μM or vehicle only for three days and examined for cellular proliferation. […] Consequently, because it has been determined that proliferation of medulloblastoma cells is inhibited by Compound 100, ATRA and valproic acid as single agent, it is reasonable to expect that the combination of compound 100 with each of these compounds or a regimen of all three agents may be effective in the treatment of medulloblastoma.
The medulloblastoma cell line, DAOY, was exposed to the HDAC inhibitor, Compound 205 at 10 μM, ATRA at 50 μM, and the compound 205 at 10 μM combined with ATRA at 50 μM, and evaluated for cellular proliferation over the course of seven days. […] (FIG. 8) Therefore, we have shown that Compound 205 is active against medulloblastoma cell line DAOY.

The subject of test [3] is neuroblastoma cell line, SH-SY5Y. To be noted: cited from earlier work.
The subject of test [4] is medulloblastoma cell line, DAOY. To be noted: cited from earlier work.
In test [5] the test system is medulloblastoma cell line DAOY xenograft tumors. Nature of the test: DAOY xenograft tumors in SCID mice. To be noted: 1.5 mg/kg daily intraperitoneally for 21 days, measured at days 7, 14 and 21 of treatment, vs vehicle (FIG. 7). The class given is in vivo. How it is done:
DAOY cells (5 million) were implanted subcutaneously in the flank of SCID mice (Day 0). After the xenografts reached a size of ˜130 cubic mm, treatment was instituted with vehicle alone (control), compound 100 (1.5 mg/kg), or compound 102 (1.5 mg/kg) daily intraperitoneally for 21 days (beginning at day 7). Xenograft masses were measured at days 7, 14 and 21 of treatment.

The test system of test [6] is neuroblastoma cell line SHSY xenograft. Nature of the test: SHSY xenograft in SCID mice. The class given is in vivo. To be noted: measured day 7 and day 14, vs vehicle (FIG. 9). The procedure:
SHSY cells (5 million) were implanted subcutaneously in the flank of SCID mice. After the xenografts reached a size of ˜100 cubic mm, treatment was instituted with vehicle alone (control), compound 100 (1.5 mg/kg) or compound 205 (10 mg/kg) daily intraperitoneally for 14 days. Xenograft masses were measured day 7 and day 14 of treatment.
SHSY cells (5 million) were implanted subcutaneously in the flank of SCID mice. After the xenografts reached a size of ˜100 cubic mm, treatment was instituted with vehicle alone (control), Compound 100 (1.5 mg/kg) or Compound 205 (10 mg/kg) daily intraperitoneally for 14 days. Xenograft masses were measured day 7 and day 14 of treatment.

Test [7] concerns human glioblastoma multiforme. To be noted: cited from earlier work.
Where [8] appears, read: compound 205 at 10 μM combined with ATRA at 50 μM, seven days (FIG. 8).

For `CC1=C(/C=C/C(C)=C/C=C/C(C)=C\C(=O)O)C(C)(C)CCC1` [13-cis-retinoic acid], the survival result in the test with neuroblastoma is given as “survival is improved significantly”.
Turning to `CC1=C(/C=C/C(C)=C/C=C/C(C)=C/C(=O)O)C(C)(C)CCC1` [ATRA, all-trans retinoic acid, reference compound], in test [1] (10 μM ATRA alone, day 4 (FIG. 3)), the proliferation result is listed as “did not prevent proliferation”. Moreover, the “inhibition of cellular proliferation” value is on record as “did not impair cellular proliferation until after day 4” in test [1] (25 μM ATRA alone, 4 or 7 days (FIG. 2)) and “inhibits proliferation of medulloblastoma cells; also recorded: inhibited proliferation to varying degrees” in test [2] (ATRA at 50 μM, 20 μM, 5 μM, three days (FIG. 5)). Besides, the “rate of cellular proliferation” value in test [2] (ATRA at 50 μM alone, seven days, vs vehicle (FIG. 8)) is recorded as “decreased rates of cellular proliferation as compared to the control”. In addition, the cellular proliferation result in test [3] (long-term treatment with ATRA, demonstrated previously) was “can inhibit cellular proliferation”; in test [4] (varying concentration of ATRA (Chang et al., 2007; Gumireddy et al., 2003)), “inhibits cellular proliferation”. The “cellular migration and invasion” value in test [3] (short term treatment (1-3 days) with ATRA (Joshi et al 2006)) is “induced cellular migration and invasion”.
On to `CN1CCN(C(=O)C2C(C(=O)O)[C@H]3CC[C@@H]2O3)CC1` (stereo partly shown) [Compound 100], for which the “inhibition of cellular proliferation” value was “failed to significantly inhibit cellular proliferation” in test [1] (5 μM Compound 100 alone, 4 or 7 days (FIG. 2)); “inhibits proliferation of neuroblastoma cells” in test [1] (combination of 5 μM Compound 100 and 25 μM ATRA, day 4 and day 7 (FIG. 2)); “potentiated the extent of inhibition by ATRA” in test [1] (combination of 5 μM Compound 100 and 25 μM ATRA, day 4 and day 7 (FIG. 2), listed as compound 100). Also, the proliferation inhibition entry in test [1] (10 μM ATRA and 10 μM Compound 100 (FIG. 3)) is on record as “exhibited high levels of proliferation inhibition”; in test [1] (2.5 mM valproic acid and 10 μM Compound 100 (FIG. 3)), “exhibited high levels of proliferation inhibition”; in test [1] (2.5 mM valproic acid, 10 μM ATRA and 10 μM Compound 100 (FIG. 3)), “severely inhibits proliferation of neuroblastoma cells; also recorded: exhibited high levels of proliferation inhibition”. Also, in test [1] (10 μM Compound 100 alone (FIG. 3)), the proliferation result was “proliferation was greatly reduced”. In test [1] (10 μM Compound 100 with 10 μM ATRA, 2.5 mM valproic acid or both (FIG. 3)), the synergy in combinations result is “synergistically enhanced the activity of ATRA, valproic acid and valproic acid in combination with ATRA”. For the same compound, the “inhibition of cell proliferation” value is “little or no inhibition of cell proliferation” in test [1] (Compound 100 at 1 μM and 5 μM, day 4, vs vehicle (FIG. 1)); “Dose dependent inhibition” in test [1] (Compound 100 at the three higher doses (10, 20, 50 μM), day 4 (FIG. 1)). For the same compound, the cell growth result in test [1] (Compound 100 at 1 μM and 5 μM, day 7, vs vehicle (FIG. 1)) is recorded as “enhanced cell growth”. In addition, the inhibition of proliferation entry in test [1] (Compound 100 at 1, 5, 10, 20, 50 μM for 4 or 7 days (FIG. 1 legend)) is recorded as “inhibits proliferation of neuroblastoma cells”. Further, in test [1] (Compound 100 at doses less than 50 μM, day 7 (FIG. 1)), the growth inhibition result is “escape of growth inhibition”. The cellular proliferation entry in test [1] (Compound 100 at low doses) is listed as “slightly stimulates cellular proliferation”; in test [7] (combination of ATRA with Compound 100, human glioblastoma multiforme (PCT/US2007/003095)), “highly effective in preventing cellular proliferation”. Also, the “rate of cellular proliferation” value in test [2] (20 μM Compound 100, three days (FIG. 4, squares)) is listed as “greatest decrease in cellular proliferation”; in test [2] (Compound 100 at 1 μM, 5 μM and 20 μM, three days, vs vehicle (FIG. 4)) it was “inhibits proliferation of medulloblastoma cells; also recorded: decreased rates of cellular proliferation as compared to the control”. The “proliferation of xenograft (xenograft mass)” value (from here on “proliferation of xenograft”) in test [5] is given as “inhibits the proliferation of the medulloblastoma cell line DAOY xenograft tumors; also recorded: inhibit the proliferation of DAOY cells”; in test [6] (Compound 100 1.5 mg/kg daily intraperitoneally for 14 days, 1.5 mg/kg) it was “inhibits the proliferation of the neuroblastoma cell line SHSY xenograft”. For the same compound, the “inhibition of human cancer cells in vitro” value in test [7] (Compound 100 in combination with trichostatin A (PCT/US2007/003095)) and in test [7] (Compound 100 in combination with valproic acid (PCT/US2007/003095)) was “better then would be expected from the combination of the agents alone” throughout.
`CC(C)(C)OC(=O)N1CCN(C(=O)C2C(C(=O)O)[C@H]3CC[C@@H]2O3)CC1` (stereo partly shown) [Compound 102]: the “proliferation of xenograft” value in test [5] was “inhibits the proliferation of the medulloblastoma cell line DAOY xenograft tumors; also recorded: inhibit the proliferation of DAOY cells”.
`O=C(CCCCCNC(=O)c1ccccc1S)Nc1cccnc1` [Compound 205]: the “rate of cellular proliferation” value in test [2] (Compound 205 at 10 μM alone, seven days, vs vehicle (FIG. 8)) is “decreased rates of cellular proliferation as compared to the control; also recorded: inhibits proliferation of the medulloblastoma cell line DAOY”; in test [2] (setting [8]), “inhibits proliferation of the medulloblastoma cell line DAOY”; in test [2] (compound 205 at 10 μM combined with ATRA at 50 μM, seven days (FIG. 8), listed as compound 205), “marked decrease in the rate of cellular proliferation”. Further, the synergy in combination result in test [2] (setting [8]) is “synergistically active”. Further, the “proliferation of xenograft” value in test [6] (Compound 205 10 mg/kg daily intraperitoneally for 14 days, 10 mg/kg) is on record as “inhibits the proliferation of the neuroblastoma cell line SHSY xenograft”.
As to `CCCC(CCC)C(=O)O` [valproic acid, reference compound], in test [1] (2.5 mM valproic acid alone (FIG. 3)), the proliferation entry is recorded as “proliferation was greatly reduced”. Besides, the inhibition of proliferation entry in test [1] (2.5 mM valproic acid and 10 μM ATRA (FIG. 3)) is recorded as “exhibited inhibition of proliferation”; in test [2] (valproic acid at 2 mM, 1 mM or 0.5 mM, three days (FIG. 6)), “inhibits proliferation of medulloblastoma cells; also recorded: inhibition of proliferation”. The cell proliferation entry in test [4] (0.6 mmol/L valproic acid, 21 days (Li, et al., 2005)) is on record as “suppressed cell proliferation”; in test [4] (1 mmol/L valproic acid, 10 days (Li, et al., 2005)), “suppressed cell proliferation”.
